# Experiment: Blood residence time of ^64Cu-Tz-SarAr in healthy mice
# Type: in vivo, athymic nude mice
# Conditions: for Activity in Blood: healthy mice
# Procedure: The radioligand was excreted rapidly via the bladder and kidneys, and the activity concentrations in the large intestine—a critical source of background noise in clinical colorectal cancer imaging—remained remarkably low (e.g., 0.07±0.01% ID/g at 1 h post-injection). Additional experiments were conducted to further interrogate the in vivo performance of ^64Cu-Tz-SarAr.
structure (smiles),measurement,setting,value
NC12CNCCNCC(NCc3ccc(CNC(=O)CCCC(=O)NCc4ccc(-c5nncnn5)cc4)cc3)(CNCCNC1)CNCCNC2.[64Cu+2] [^64Cu-Tz-SarAr],half-life of clearance from the blood,"biexponential fit, greater than 99% of the radioligand",~16 min
same,Activity in Blood,15 min,3.02 ± 1.10 % ID/g
same,Activity in Blood,30 min,1.55 ± 0.21 % ID/g
same,Activity in Blood,1 h,0.42 ± 0.11 % ID/g
same,Activity in Blood,4 h,0.15 ± 0.01 % ID/g
same,Activity in Blood,12 h,0.12 ± 0.03 % ID/g
same,Activity in Blood,24 h,0.06 ± 0.01 % ID/g
same,blood residence time,vast majority of the radioligand,~16 min

# Reference: US11135320B2, “Radioligands for pretargeted pet imaging and methods of their therapeutic use” (priority 2015, dated 2021)
